Experimental data from patent US9321790B2, “Pyrimidinone derivatives as antimalarial agents” (SANOFI, priority 2012, dated 2016).

Key:
[1] = tested on: Plasmodium falciparum (strain NF54); assay: Antimalarial activity test: growth of Plasmodium falciparum in infected human erythrocytes, 3H-hypoxanthine incorporation; format: cell-based; conditions: strain NF54 sensitive to chloroquine, 72 h total incubation
In short: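 Chloroquine-sensitive NF54 parasites in human erythrocytes (1.25% hematocrit, 0.15% parasitemia) were grown in hypoxanthine-free RPMI 1640 with HEPES and Albumax II, with compound in twofold serial dilution, at 37 °C under 93% N2/4% CO2/3% O2. After 48 h, 3H-hypoxanthine (0.5 μCi) was added for 24 h. Scintillation counts versus drug-free control gave IC50.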

[2] = biological target: human PI3Kα (Homo sapiens (Human), UniProt P42336); assay: Human PI3Kα activity test (luciferin/luciferase ATP consumption, KinaseGlo); format: biochemical; conditions: PI3Kα (p110α/p85α), 50 μM PIP2, 2 μM ATP, 90 minutes; read-out: IC50 Human PI3Kα
human PI3Kα, sequence (P42336 whole entry): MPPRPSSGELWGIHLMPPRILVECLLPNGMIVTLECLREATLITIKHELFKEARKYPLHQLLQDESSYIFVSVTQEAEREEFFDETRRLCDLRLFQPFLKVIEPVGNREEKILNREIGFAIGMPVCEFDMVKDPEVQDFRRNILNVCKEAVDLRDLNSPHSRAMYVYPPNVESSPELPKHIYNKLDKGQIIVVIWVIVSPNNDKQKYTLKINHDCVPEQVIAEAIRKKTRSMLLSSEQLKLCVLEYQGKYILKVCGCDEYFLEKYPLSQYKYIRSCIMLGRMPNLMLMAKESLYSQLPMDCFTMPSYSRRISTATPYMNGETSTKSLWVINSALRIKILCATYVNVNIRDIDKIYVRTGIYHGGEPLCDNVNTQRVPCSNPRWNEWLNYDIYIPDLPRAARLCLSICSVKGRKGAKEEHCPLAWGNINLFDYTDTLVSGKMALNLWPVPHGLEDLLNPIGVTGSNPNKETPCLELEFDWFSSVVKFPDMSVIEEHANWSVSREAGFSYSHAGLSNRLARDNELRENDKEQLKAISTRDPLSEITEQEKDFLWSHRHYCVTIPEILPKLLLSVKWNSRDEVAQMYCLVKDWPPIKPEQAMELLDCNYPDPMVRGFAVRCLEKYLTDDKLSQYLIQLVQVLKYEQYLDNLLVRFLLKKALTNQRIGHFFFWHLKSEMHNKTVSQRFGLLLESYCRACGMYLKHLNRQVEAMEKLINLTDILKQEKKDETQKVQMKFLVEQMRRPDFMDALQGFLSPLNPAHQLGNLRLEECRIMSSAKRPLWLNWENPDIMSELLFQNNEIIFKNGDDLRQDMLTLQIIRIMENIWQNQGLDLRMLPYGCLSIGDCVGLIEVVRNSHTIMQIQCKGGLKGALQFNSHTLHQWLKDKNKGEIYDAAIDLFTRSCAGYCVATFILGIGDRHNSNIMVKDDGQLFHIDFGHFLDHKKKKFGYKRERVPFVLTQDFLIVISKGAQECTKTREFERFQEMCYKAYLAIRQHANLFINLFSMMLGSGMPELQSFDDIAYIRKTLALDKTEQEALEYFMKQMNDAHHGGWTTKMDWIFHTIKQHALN
human PI3Kα, sequence (P27986 whole entry partner): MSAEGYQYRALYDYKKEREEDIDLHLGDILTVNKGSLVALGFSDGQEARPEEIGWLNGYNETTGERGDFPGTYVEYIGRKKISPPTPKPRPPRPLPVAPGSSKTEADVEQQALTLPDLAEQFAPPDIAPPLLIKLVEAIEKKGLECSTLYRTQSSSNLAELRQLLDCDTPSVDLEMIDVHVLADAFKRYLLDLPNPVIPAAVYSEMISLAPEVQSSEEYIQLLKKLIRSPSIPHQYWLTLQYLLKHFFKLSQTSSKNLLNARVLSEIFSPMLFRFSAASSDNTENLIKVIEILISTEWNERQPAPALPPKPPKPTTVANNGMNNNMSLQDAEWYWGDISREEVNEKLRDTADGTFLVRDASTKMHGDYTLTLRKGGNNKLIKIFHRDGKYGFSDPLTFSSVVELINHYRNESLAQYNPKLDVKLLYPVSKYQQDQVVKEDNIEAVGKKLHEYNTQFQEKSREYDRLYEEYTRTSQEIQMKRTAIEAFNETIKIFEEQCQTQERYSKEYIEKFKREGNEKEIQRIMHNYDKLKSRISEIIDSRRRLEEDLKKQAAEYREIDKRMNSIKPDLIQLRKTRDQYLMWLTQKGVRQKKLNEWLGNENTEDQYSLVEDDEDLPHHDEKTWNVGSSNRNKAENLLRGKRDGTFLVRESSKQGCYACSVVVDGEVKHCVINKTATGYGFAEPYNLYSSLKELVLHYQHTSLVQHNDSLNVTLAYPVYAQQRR
Procedure: The test uses a luciferin/luciferase system to measure the concentration of ATP and its consumption during the enzymatic reaction.
After 90 minutes, the reaction is quenched by adding 20 μl/well of KinaseGlo reagent (Promega V6713). After 10 minutes in the dark, the luminescence is read using a PHERAStar microplate reader (reading at 0.8 sec/well).

[3] = Plasmodium falciparum, Erythrocyte

IC50 [1, 3] | IC50 [2] | IC50 [1] | SMILES
65 nM | > 10000 nM |  | CCOC(=O)Nc1ccc(C(=O)CN2c3nc(N4C[C@@H]5C[C@H]4CO5)cc(=O)n3CC[C@H]2C(F)(F)F)cn1 [Compound 57, ethyl {5-[2-((S)8-(1S,4S)-2-oxa-5-azabicyclo[2.2.]hept-5-yl-6-oxo-2-trifluoromethyl-3,4-dihydro-2H,6H-pyrimido[1,2-a]pyrimidin-1-yl)acetyl]pyrid-2-yl}carbamate]
170 nM | 8500 nM |  | O=c1cc(N2C[C@@H]3C[C@H]2CO3)nc2n1CC[C@@H](C(F)(F)F)N2CC(O)(C(F)(F)F)C(F)(F)F [Compound 96, (8S)-2-(1S,4S)-2-oxa-5-azabicyclo[2.2.1]hept-5-yl-9-(3,3,3-trifluoro-2-hydroxy-2-trifluoromethylpropyl)-8-trifluoromethyl-6,7,8,9-tetrahydropyrimido[1,2-a]pyrimidin-4-one]
 | > 10000 nM | > 240 nM | CC(C)(C)C(=O)CN1c2nc(N3C[C@@H]4C[C@H]3CO4)cc(=O)n2C[C@@]1(C)C(F)(F)F [Compound 30, 1-(3,3-Dimethyl-2-oxobutyl)-2-methyl-7-(1S,4S)-2-oxa-5-azabicyclo[2.2.1]hept-5-yl-2-((S)-trifluoromethyl)-2,3-dihydro-1H-imidazo[1,2-a]pyrimidin-5-one]
95 nM | 8200 nM |  | CNc1ccc(C(=O)CN2c3nc(N4C[C@@H]5C[C@H]4CO5)cc(=O)n3CC[C@H]2C(F)(F)F)cn1 [Compound 5, (8S)-9-[2-(6-methylaminopyrid-3-yl)-2-oxoethyl]-2-(1S,4S)-2-oxa-5-azabicyclo[2.2.1]hept-5-yl-8-trifluoromethyl-6,7,8,9-tetrahydropyrimido[1,2-a]pyrimidin-4-one]
 | > 10000 nM | 80 nM | N#Cc1ccc(C(=O)CN2c3nc(N4C[C@@H]5C[C@H]4CO5)cc(=O)n3CC[C@H]2C(F)(F)F)cc1 [Compound 42, 4-[2-((S)-8-(1S,4S)-2-Oxa-5-azabicyclo[2.2.1]hept-5-yl-6-oxo-2-trifluoromethyl-3,4-dihydro-2H,6H-pyrimido[1,2-a]pyrimidin-1-yl)acetyl]benzonitrile]
75 nM | 6350 nM |  | Cc1cc(C(=O)CN2c3nc(N4C[C@@H]5C[C@H]4CO5)cc(=O)n3CC[C@H]2C(F)(F)F)cnc1N [Compound 31, (8S)-9-[2-(6-Amino-5-methylpyrid-3-yl)-2-oxoethyl]-2-(1S,4S)-2-oxa-5-azabicyclo[2.2.1]hept-5-yl-8-trifluoromethyl-6,7,8,9-tetrahydropyrimido[1,2-a]pyrimidin-4-one]
 | > 10000 nM | 140 nM | O=C(CN1c2nc(N3C[C@@H]4C[C@H]3CO4)cc(=O)n2CC[C@H]1C(F)(F)F)N1CC2CCC(C1)O2 [Compound 98, (8S)-2-(1S,4S)-2-Oxa-5-azabicyclo[2.2.1]hept-5-yl-9-[2-(8-oxa-3-azabicyclo[3.2.1]oct-3-yl)-2-oxoethyl]-8-trifluoromethyl-6,7,8,9-tetrahydropyrimido[1,2-a]pyrimidin-4-one]
7 nM | 180 nM |  | O=CN1CCC(CN2c3nc(N4C[C@@H]5C[C@H]4CO5)cc(=O)n3CC[C@H]2C(F)(F)F)CC1 [Compound 95, 4-((2S)-8-(1S,4S)-2-oxa-5-azabicyclo[2.2.1]hept-5-yl-6-oxo-2-trifluoromethyl-3,4-dihydro-2H,6H-pyrimido[1,2-a]pyrimidin-1-ylmethyl)piperidine-1-carbaldehyde]
> 200 nM | > 7200 nM |  | Cc1cncc(C(=O)CN2c3nc(N4C[C@@H]5C[C@H]4CO5)cc(=O)n3C[C@@]2(C)C(F)(F)F)c1 [Compound 16, 2-methyl-1-[2-(5-methylpyrid-3-yl)-2-oxoethyl]-7-(1S,4S)-2-oxa-5-azabicyclo[2.2.1]hept-5-yl-2-((S)-trifluoromethyl)-2,3-dihydro-1H-imidazo[1,2-a]pyrimidin-5-one]
27 nM | 6600 nM |  | O=C(CN1c2nc(N3C[C@@H]4C[C@H]3CO4)cc(=O)n2CC[C@H]1C(F)(F)F)c1ccccn1 [Compound 68, (8S)-2-(1S,4S)-2-oxa-5-azabicyclo[2.2.1]hept-5-yl-9-(2-oxo-2-pyrid-2-ylethyl)-8-trifluoromethyl-6,7,8,9-tetrahydropyrimido[1,2-a]pyrimidin-4-one]
160 nM | ≥ 10000 nM |  | Cc1ccc(C(=O)CN2c3nc(N4C[C@@H]5C[C@H]4CO5)cc(=O)n3C[C@@]2(C)C(F)(F)F)cn1 [Compound 17, 2-methyl-1-[2-(6-methylpyrid-3-yl)-2-oxoethyl]-7-(1S,4S)-2-oxa-5-azabicyclo[2.2.1]hept-5-yl-2-((S)-trifluoromethyl)-2,3-dihydro-1H-imidazo[1,2-a]pyrimidin-5-one]
230 nM | > 10000 nM |  | O=C(CN1c2nc(N3C[C@@H]4C[C@H]3CO4)cc(=O)n2CC[C@H]1C(F)(F)F)c1ccc(OC(F)F)cc1 [Compound 37, (S)-9-[2-(4-Difluoromethoxyphenyl)-2-oxoethyl]-2-(1S,4S)-2-oxa-5-azabicyclo[2.2.1]hept-5-yl-8-trifluoromethyl-6,7,8,9-tetrahydropyrimido[1,2-a]pyrimidin-4-one]
11 nM | > 10000 nM |  | O=C(CN1c2nc(N3C[C@@H]4C[C@H]3CO4)cc(=O)n2CC[C@H]1C(F)(F)F)C1CCOCC1 [Compound 62, (8S)-2-(1S,4S)-2-Oxa-5-azabicyclo[2.2.1]hept-5-yl-9-[2-oxo-2-(tetrahydropyran-4-yl)ethyl]-8-trifluoromethyl-6,7,8,9-tetrahydropyrimido[1,2-a]pyrimidin-4-one]
3.4 nM | 2800 nM |  | CC(=O)N1CCC(CCN2c3nc(N4C[C@@H]5C[C@H]4CO5)cc(=O)n3CC[C@H]2C(F)(F)F)CC1 [Compound 89, (S)-9-[2-(1-Acetylpiperid-4-yl)ethyl]-2-(1S,4S)-2-oxa-5-azabicyclo[2.2.1]hept-5-yl-8-trifluoromethyl-6,7,8,9-tetrahydropyrimido[1,2-a]pyrimidin-4-one]
73 nM | > 10000 nM |  | Cn1cncc1C(=O)CN1c2nc(N3C[C@@H]4C[C@H]3CO4)cc(=O)n2CC[C@H]1C(F)(F)F [Compound 66, (8S)-9-[2-(3-Methyl-3H-imidazol-4-yl)-2-oxoethyl]-2-(1S,4S)-2-oxa-5-azabicyclo[2.2.1]hept-5-yl-8-trifluoromethyl-6,7,8,9-tetrahydropyrimido[1,2-a]pyrimidin-4-one]

SMILES | IC50 [1, 3] | IC50 [2] | IC50 [1]
CCOC(=O)N1CCC(C(=O)CN2c3nc(N4C[C@@H]5C[C@H]4CO5)cc(=O)n3CC[C@H]2C(F)(F)F)CC1 [Compound 91, 4-[2-((S)-8-(1S,4S)-2-Oxa-5-azabicyclo[2.2.1]hept-5-yl-6-oxo-2-trifluoromethyl-3,4-dihydro-2H,6H-pyrimido[1,2-a]pyrimidin-1-yl)acetyl]piperidine-1-carboxylic acid ethyl ester] |  | > 10000 nM | 25 nM
COC(=O)Nc1ccc(C(=O)CN2c3nc(N4C[C@@H]5C[C@H]4CO5)cc(=O)n3CC[C@H]2C(F)(F)F)cn1 [Compound 58, {5-[2-((S)-8-(1S,4S)-2-Oxa-5-azabicyclo[2.2.1]hept-5-yl-6-oxo-2-trifluoromethyl-3,4-dihydro-2H,6H-pyrimido[1,2-a]pyrimidin-1-yl)acetyl]pyrid-2-yl}carbamic acid methyl ester] |  | 6400 nM | 53 nM
